Assay results published in patent US20250236892A1, “Inhibition of NHEJ, MMEJ, and 53BP1 Promotes High Levels of HDR” (Integrated DNA Technologies, Inc., priority 2024, published 2025).

How the values were obtained:
HEK293 cells [1] = assay: CAR knock-in at the TRAC locus with dsDNA Alt-R HDR donor block, PCR and Fragment Analyzer; format: cell-based; conditions: enhancer used alone; ART558 10 μM, V2 1 μM, Ubv-A protein 25 μM, Ubv-A mRNA 25 nM; Cas9 RNP or Cas9 mRNA
Method: FIG. 3A depicts percent CAR knock-in (KI) at the TRAC locus in HEK293 cells treated with 1 μg dsDNA Alt-R HDR donor block, 2 μM Cas9 RNP, and either 25 μM tagless Ubv-A protein or 25 nM Ubv-A mRNA or no Ubv-A and incubated in media containing DMSO (no enhancer), MMEJ inhibitor ART558 (ART, 10 μM), NHEJ inhibitor Alt-R HDR enhancer V2 (V2, 1 μM), or both ART558 and V2. Percent KI was calculated using PCR followed by analysis using an Agilent Fragment Analyzer and data processing using PROSize 3.0 software to calculate the relative molar concentrations between wild-type and edited products. Error bars indicate SD, n=3. […]
HEK293 cells were harvested and resuspended in SF Cell Line Nucleofector Solution (Lonza, V4SC-2096) at a concentration of approximately 16,500 cells/μl and 18 μl of this cell suspension was used for each nucleofection. […] To quantify knock-in percentages, genomic DNA flanking the sgRNA target site was amplified by PCR, PCR products were separated on a Fragment Analyzer (Agilent Technologies), and the percentage of edited and unedited alleles was calculated using PROSize 3.0 software.
Recent publications have shown that inhibition of MMEJ through inhibition of DNA polymerase theta using small molecule inhibitors increases the rate of HDR and reduces undesired edits^16,27. […] Genomic DNA was isolated approximately 48 hours after delivery and editing was analyzed by NGS. […]

HEK293 cells [2] = assay: HDR insertion of a 6-nt EcoRI sequence at SpCas9 RNP induced DSBs with ssDNA donor, repair events measured by NGS; format: cell-based
Method: FIG. 1 depicts inhibition of NHEJ, MMEJ, and 53BP1 leads to high levels of HDR at SpCas9 induced DSBs. HEK293 cells were treated with Cas9 RNP (2 μM) targeting 5 different sites (FIG. 1A: AADACL3; FIG. 1B: ANKRD50; FIG. 1C: ABCD4: FIG. 1D: AR; FIG. 1E: AKAP6) in the genome alongside ssDNA donor template with or without Ubv-A protein (25 μM). Cells were then plated in media containing no DMSO, DMSO control, ART, V2, or ART+V2 for 24 hours before exchanging for fresh media (see Methods for concentrations). The graphs show the percent of each repair event under each condition measured by NGS with error bars indicating SD from three replicates. Likely MMEJ deletions are determined based on the presence of microhomology of two nucleotides or greater at the ends of the deletion.
For HDR using ssDNA templates in HEK293 cells genome editing was mediated via IDT Alt-R Cas9 ribonucleoprotein, IDT Alt-R AsCas12a Ultra, or EURECA-V (a ErCas12a variant) (RNP) complexes delivered by Lonza nucleofection in concert with single-stranded oligodeoxynucleotide (ssODN) HDR repair templates. The specific repair event was the insertion of a 6-nt EcoRI sequence (5′-GAATTC-3′) at either the Cas9, AsCas12a, or ErCas12a cut site. The sgRNAs for Cas9 and crRNAs for AsCas12a corresponding to the protospacer sequences listed in Table 2 were ordered from IDT (Table 2). The HDR donor templates for Cas9 editing contain 40-nt homology arms (HA) flanking a 6 nt EcoR1 cut site insert. The HDR donor templates for AsCas12a were similar except for slightly different homology arm lengths (40 nt 5′ HA and 45 nt 3′ HA)^66. The HDR donor sequences listed in Table 3 were ordered from IDT as Alt-R HDR donor oligos (Table 3). The repair templates are homologous to the non-targeting strand of dsDNA, where targeting/non-targeting is defined with respect to the guide RNA sequence and the presence of the NGG/TTTV PAM sequence identifying the non-target strand. […]

Compound: Cc1cccc(N(C)C(=O)[C@@H]2[C@H](O)CCN2c2nc(C)cc(C(F)(F)F)c2C#N)c1 [ART558, reference compound]
- HDR (CAR knock-in) (HEK293 cells [1]): minimal effect on HDR
- HDR (HEK293 cells [2]; 10 μM ART558 alone in media 24 hours, 2 μM Cas9 RNP, 2 μM ssDNA, 5 sites): minimal boost in HDR
- HDR, site with largest increase (HEK293 cells [2]; 10 μM ART558 alone, AKAP6 site, highest level of likely MMEJ repair events in media only condition): AKAP6
- rates of HDR and likely MMEJ events (HEK293 cells [2]; 10 μM ART558 in combination with 1 μM V2, compared with ART558 plus Ubv-A): the effect is less pronounced
